The record followed here is US9364438B2, “Process for producing solid particles” (Takeda Pharmaceutical Company Limited, priority 2012, dated 2016).

This series in a line: Microscopic observation of precipitated resatorvid crystals (poor solvent crystallization). The series is classed as physicochemical. The settings on record: microscope. The procedure:
Resatorvid (10 mg) was dissolved in methanol (0.5 mL) to prepare a methanol solution of resatorvid. The solution was added dropwise to water (5 mL) for injection with stirring at 600 rpm to allow precipitation of resatorvid crystal. The crystal was recovered, and vacuum dried at 50° C. for 24 hr. The obtained crystal was observed under a microscope.
In the same manner as in Comparative Example 1 except that water for injection containing nanobubbles produced under the above-mentioned conditions was used instead of water for injection, resatorvid crystal was obtained. The obtained crystal was observed under a microscope.
Resatorvid (10 mg) was dissolved in methanol (0.5 mL) to prepare a methanol solution of resatorvid. Polysorbate 80 (2 mg) was dissolved in water for injection (10 mL) to prepare aqueous polysorbate 80 solution. The aforementioned resatorvid solution (0.5 mL) was added dropwise to water (10 mL) for injection with stirring at 600 rpm to allow precipitation of resatorvid crystal. The crystal was recovered, and vacuum dried at 50° C. for 24 hr. The obtained crystal was observed under a microscope.
In the same manner as in Comparative Example 2 except that water for injection containing nanobubbles produced under the above-mentioned conditions was used instead of water for injection, resatorvid crystal was obtained. The obtained crystal was observed under a microscope.

With `CCOC(=O)C1=CCCC[C@H]1S(=O)(=O)Nc1ccc(F)cc1Cl` [Example 2, ethyl (6R)-6-[(2-chloro-4-fluoroanilino)sulfonyl]-1-cyclohexene-1-carboxylate], under “poor solvent aqueous polysorbate 80 nanobubble solution, compared with conventional aqueous polysorbate 80 solution (Comparative Example 2)”, the “average maximum length of each crystal particle” value is given as “smaller average maximum length”.
With `CCOC(=O)C1=CCCC[C@H]1S(=O)(=O)Nc1ccc(F)cc1Cl` [Example 1, ethyl (6R)-6-[(2-chloro-4-fluoroanilino)sulfonyl]-1-cyclohexene-1-carboxylate], the “average maximum length of each crystal particle” value (poor solvent nanobubble water, compared with conventional water for injection (Comparative Example 1), FIG. 1 vs FIG. 2) is reported as “smaller average maximum length”.
